# Key:
# dog D1 receptor = experiment: cAMP assay: potentiation of EC20 dopamine in transiently transfected HEK293 cells; format: cell-based; settings: dog D1, HEK293 transient, n = 4
# Description: (§1) The human, rhesus monkey, dog, or mouse D1 receptor was cloned into the Jump-In vector system (Life Technologies Corp, CA) and transiently transfected into HEK293 cells. Increases in cAMP by DPTQ (free base, Eli Lilly) were measured in the presence of an EC20 concentration of dopamine. The EC50 values for each species along with % max stimulation (where dopamine max stimulation equals 100%) are presented in Table 1. These in vitro studies were performed at Eli Lilly and Company, Indianapolis, in USA. For further details on the measurement of effects on cAMP accumulation in these transiently transfected cells, see Hao et al. ([2019]).
# human D1 receptor = biological target: T1, human D1 receptor (Homo sapiens, UniProt P21728); experiment: as above; format: cell-based; settings: human D1, HEK293 transient, n = 4
# T1 construct: expressed in transfected cells; host or cells: HEK293 (transient, Jump-In vector)
# Description: as §1
# mouse D1 receptor = biological target: T2, mouse D1 receptor (Mus musculus, UniProt Q61616); experiment: as above; format: cell-based; settings: mouse D1, HEK293 transient, n = 4
# T2 construct: expressed in transfected cells; host or cells: HEK293 (transient, Jump-In vector)
# Description: as §1
# [1] = biological target: T3, rhesus monkey D1 receptor (Macaca mulatta, UniProt O77680); experiment: as above; format: cell-based; settings: rhesus D1, HEK293 transient, n = 4
# T3 construct: expressed in transfected cells; host or cells: HEK293 (transient, Jump-In vector)
# Description: as §1
# rhesus monkeys = experiment: Spontaneous eye blink rate, cumulative dosing; format: in vivo, rhesus monkey
# Source text: Eleven 5–6-year-old, male rhesus monkeys (Chengdu Ping, An Animal Breeding and Research Base, Sichuan Province, China) with an average weight of 4.83 kg were included in the study. The animals were randomly divided into three groups, DPTQ higher cumulative dose group (n = 4); DPTQ lower cumulative dose group (n = 3); and vehicle (20% Captisol (CyDex Pharmaceuticals, Inc., KS) in NaPO4 buffer) group (n = 4). The D1 agonist SKF82958 was included as a positive control; the results for this compound (not shown here) were recently published together with data for a different D1PAM (DETQ, see Bruns et al. [2018]). The D1 selective antagonist SCH39166 hydrobromide (Cat No.: 2299, Batch No.: 3A/129719) was purchased from Tocris, MN, and was prepared in Millipore pure water with the injection volume 0.2 ml/kg. The D1 antagonist was dosed 15 min before vehicle or DPTQ (n = 4 animals per group).
# Spontaneous eye blinking rate was measured during observational experiments conducted in a specially constructed monkey chair (Mason et al. [2019]). A U-shaped neck plate that helped to fixate the orientation of the head was used to facilitate observation of eye blink rate response. A compact video camera (Panasonic/wv-cp480/CH) on a tripod was positioned in front of the seated monkey. Two camera images were combined by video collector (Color QUAD system) and transferred to the EthoVision software (Noldus, Leesburg, VA) on the computer for on-line viewing and recording.
# Two weeks before testing, monkeys were trained daily to sit in the monkey chair for two 2-h periods with food reward. During post-training test sessions conducted between 9:00 am and 4:30 pm every day, each monkey was studied for nine consecutive 15-min components. Each 15-min block consisted of a 10-min habituation period followed by a 5-min period during which eye blinking was counted. […] Observers blind to the treatment conditions later scored each 5-min videotaped session. An eye blink was defined as a visible, rapid opening and closing of the eyelid. Two observers independently confirmed the measurement with reliability > 90%.
# The effects of different D1 ligands on spontaneous eye blink rate were studied by a cumulative dosing procedure (Jutikiewicz and Bergman 2004). Active compound or vehicle (Captisol 20% w/v NaPO4 buffer) was administered after obtaining two baseline eye blink recordings. The ligand was given in random order to different monkeys of each group as described above. To study dose response and time course, incremental doses of DPTQ were administrated at the end of 15-min components of each test session.
# DPTQ (free base, see Hao et al. [2019]) was supplied by Eli Lilly Company. Captisol (Lot No.: NC-04A-05034) was prepared as follows: Captisol 20% w/v NaPO4 buffer 25 mM, pH 8. The injection volume for DPTQ was 0.5 ml/kg IM. DPTQ at 0.1 mg/kg, 0.5 mg/kg, and 1 mg/kg were dosed as clear solution, while the 5 mg/kg and 10 mg/kg doses were formulated as fine suspensions. The above vehicle solution was stored at 4℃ in a refrigerator and restored to room temperature before use. When preparing DPTQ fresh daily, a portion of the vehicle (20% Captisol) was added to the compound and stirred to wet, followed by addition of the remainder of the vehicle and mixing until the solution became homogeneous. The suspension was then sonicated on an ice bath for 40 min to reduce particle size. Animals were dosed while in the chair.
# Results for each monkey were expressed as the rate of eye blinking (blinks per minute) averaged over each 5-min testing epoch. The effects of vehicle and D1 PAM on eye blinking were averaged for each group of monkeys and expressed as mean ± SE. The effects of DPTQ and vehicle were analyzed with two-way ANOVA (D1 PAM and time) followed by Bonferroni post hoc test (GraphPad Prism, San Diego CA).
# [2] = Plasma ligand exposure after IM injection (LC/MS) and projected brain concentrations; format: in vivo, macaque monkeys
# Description: Plasma samples were collected in EDTA tubes at 0, 0.25, 0.50, 1, 2, 4, 8, 12, and 24 h after a bolus IM injection and stored at − 70C until further analysis by LC/MS (for further details see Hao et al. [2019]). For the lower dose of 0.1 mg/kg, IM, plasma samples were collected from three of the animals participating in the spatial working memory task at Yale University, at approximately 1.5 h after dosing (~ 30 min after completion of behavioral test session). Animals were acclimated to sitting freely in a customized chair and having one leg held for hair trimming (if necessary), wiping with 70% alcohol, and saphenous venopuncture using a BD Vacutainer tube inside a safety holder. For the 5 mg/kg, IM dose, plasma samples were collected in a separate study in three male adult macaque monkeys at Eli Lilly and Company, Indianapolis, IN. The collection and storage of samples followed the procedure described above, and analysis of D1 ligand levels was carried out at Eli Lilly and Company, Indianapolis, IN, USA, using liquid chromatography and tandem mass spectrometry.
# D2 receptor = D2 receptor (Homo sapiens, UniProt P14416); experiment: Broad screening binding study with 3[H]-raclopride; settings: 3[H]-raclopride as ligand; unpublished findings
# [3] = Brain penetration, unbound brain/plasma ratio and unbound ligand fraction; settings: J. Cramer, unpublished data
# T1 sequence (P21728 whole entry): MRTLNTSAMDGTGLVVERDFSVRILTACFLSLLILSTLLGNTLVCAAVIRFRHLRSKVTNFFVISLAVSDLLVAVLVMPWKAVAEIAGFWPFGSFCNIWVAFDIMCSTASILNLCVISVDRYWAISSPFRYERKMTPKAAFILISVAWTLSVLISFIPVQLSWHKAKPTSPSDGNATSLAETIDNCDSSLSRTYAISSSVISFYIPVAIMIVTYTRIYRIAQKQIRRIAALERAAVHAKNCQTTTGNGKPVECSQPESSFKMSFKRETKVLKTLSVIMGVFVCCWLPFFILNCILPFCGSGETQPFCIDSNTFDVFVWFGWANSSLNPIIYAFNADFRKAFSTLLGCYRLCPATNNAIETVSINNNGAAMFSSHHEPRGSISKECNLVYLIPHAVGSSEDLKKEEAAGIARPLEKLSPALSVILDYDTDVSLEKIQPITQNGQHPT
# T2 sequence (Q61616 whole entry): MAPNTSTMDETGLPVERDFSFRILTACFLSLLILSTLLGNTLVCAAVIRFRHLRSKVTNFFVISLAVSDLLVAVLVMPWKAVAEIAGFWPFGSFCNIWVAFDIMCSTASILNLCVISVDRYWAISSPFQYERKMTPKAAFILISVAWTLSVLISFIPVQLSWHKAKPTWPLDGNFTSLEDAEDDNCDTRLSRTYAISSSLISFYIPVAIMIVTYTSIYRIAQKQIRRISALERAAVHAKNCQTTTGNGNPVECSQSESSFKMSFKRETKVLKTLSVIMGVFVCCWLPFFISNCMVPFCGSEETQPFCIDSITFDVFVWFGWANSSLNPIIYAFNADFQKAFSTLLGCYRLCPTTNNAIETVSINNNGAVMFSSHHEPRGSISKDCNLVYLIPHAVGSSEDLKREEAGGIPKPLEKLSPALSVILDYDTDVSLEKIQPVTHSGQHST
# T3 sequence (O77680 whole entry): as the sequence (P21728 whole entry) above, with N311I counted along it
# Chain of D2 receptor (P14416 whole entry): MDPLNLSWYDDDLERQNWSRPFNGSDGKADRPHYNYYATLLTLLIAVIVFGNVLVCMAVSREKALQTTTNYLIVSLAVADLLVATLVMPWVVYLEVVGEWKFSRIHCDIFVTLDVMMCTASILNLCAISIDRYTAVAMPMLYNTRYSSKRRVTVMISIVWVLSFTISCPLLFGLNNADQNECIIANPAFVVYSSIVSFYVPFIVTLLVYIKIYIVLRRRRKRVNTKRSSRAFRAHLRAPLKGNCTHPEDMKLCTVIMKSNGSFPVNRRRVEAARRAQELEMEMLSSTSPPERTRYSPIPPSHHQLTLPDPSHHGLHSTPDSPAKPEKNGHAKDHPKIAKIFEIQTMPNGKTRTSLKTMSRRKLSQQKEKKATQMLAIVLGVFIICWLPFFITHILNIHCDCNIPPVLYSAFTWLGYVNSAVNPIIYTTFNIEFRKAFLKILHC
compound,measurement,setting,value
C[C@H]1c2cccc(CC(C)(C)O)c2C[C@H](CO)N1C(=O)Cc1c(Cl)cccc1Cl [DPTQ],EC50,dog D1 receptor,21.5 nM
same,Max stimulation (% of max DA),dog D1 receptor,88 % of max DA
same,EC50,human D1 receptor,22.9 nM
same,Max stimulation (% of max DA),human D1 receptor,77 % of max DA
same,EC50,mouse D1 receptor,534 nM
same,Max stimulation (% of max DA),mouse D1 receptor,41 % of max DA
same,EC50,[1],38 nM
same,Max stimulation (% of max DA),[1],82 % of max DA
same,Increase in eye blink rate after SCH39166 pretreatment,"rhesus monkeys; DPTQ 0.5, 5, 10 mg/kg cumulative, SCH39166 0.03 mg/kg IM 15 min before","small, non-significant"
same,Oral movement,"rhesus monkeys; both high and lower cumulative doses, clear effect only at higher dose at 30 min",some degree of oral movement such as tongue protrusion
same,Spontaneous eye blink rate vs vehicle,"rhesus monkeys; higher cumulative dose 0.5, 5 and 10 mg/kg IM, at 30, 45, 60 and 75 min",significant increases
same,Spontaneous eye blink rate vs vehicle,"rhesus monkeys; lower cumulative dose 0.1, 1 and 5 mg/kg IM, only at 45 and 60 min",small but significant
same,Estimated unbound ligand concentrations in the brain,"[2]; 0.1 mg/kg IM, 1.5 h after dosing",1 to 2 nM
same,Projected unbound brain concentration as multiple of cAMP EC50,"[2]; 5 mg/kg IM, 2 h post dosing, hD1 and monkey D1 cAMP assay",eightfold down to onefold
same,Plasma levels at 0.1 mg/kg IM relative to 5 mg/kg IM (times lower),[2]; 0.1 vs 5 mg/kg IM,about 50 ×
same,Plasma concentrations at late time points,[2]; after 12 or 24 h,negligible
same,Ki,D2 receptor,> 5600 nM
same,Unbound brain vs unbound plasma concentration ratio,[3],about 0.3
same,Unbound ligand fraction,[3],0.068
